Results reported in patent US10711007B2, “Selective inhibitors of protein arginine methyltransferase 5 (PRMT5)” (Prelude Therapeutics, Incorporated, priority 2018, dated 2020).

Test system: γ-globin expression in erythroid progenitors
Assay: γ-globin induction by quantitative PCR in human erythroid progenitor cells
Format: cell-based
Details: 9 days of treatment, N=1
Protocol: Compounds were dissolved in DMSO to make 10 mM stock solutions, and further diluted to make 1 mM and 0.1 mM stocks.
Human erythroid progenitor cells were generated from purified CD34+ cells from mobilized peripheral blood purchased from AllCells. CD34+ cells were cultured in StemSpan SFEM II (StemCell Technologies, Catalog #09605) supplemented with 100 ng/ml FLT3 ligand (R&D systems, Catalog #308-FK), 100 ng/ml SCF (R&D systems, Catalog #255-SC), 20 ng/ml IL-3 (R&D systems, Catalog #203-IL), 20 ng/ml IL-6 (R&D systems, Catalog #206-IL) for 6 days, then reseeded into the same medium supplemented with 20 ng/ml SCF, 5 ng/ml IL-3, 1 U/ml EPO (R&D systems, Catalog #287-TC), 2 μM dexamethasone (Sigma-Aldrich, Catalog # D4902), 1 μM β-estradiol (Sigma-Aldrich, Catalog # E2758). Cells were treated with 0.1 and 1 μM compound from Day 8 of differentiation. Media and compound were renewed every 3 days and cells were collected for RNA isolation after 9 days of treatment.
Assessment of γ-Globin Induction by Quantitative PCR
RNA was isolated using Quick-RNA Microprep kit (Zymo Research, Catalog # Z1050), cDNA was synthesized using qScript cDNA SuperMix (Quantabio, Catalog #95048). Quantitative PCR for y-globin was performed using PerfeCTa SYBR Green FastMix (Quantabio, Catalog #95071) on Bio-Rad CFX Connect Real-Time PCR Detection System. […]

SMILES: Nc1ncnc2c1ccn2[C@@H]1O[C@H]([C@@H]2OCc3ccc(Cl)cc32)[C@@H](O)[C@H]1O [Example 5, (2R,3R,4S,5S)-2-(4-amino-7H-pyrrolo[2,3-d]pyrimidin-7-yl)-5-((R)-6-chloro-1,3-dihydroisobenzofuran-1-yl)tetrahydrofuran-3,4-diol]
- increase in expression of γ-globin (0.1 μM): 1.5 fold
- increase in expression of γ-globin (1 μM): 2 fold
